Experiments:
HCT116 cells = test: CTG cell viability assay; format: cell-based, human; conditions: HCT116, CellTiter-Glo, 0.0041-10 uM, 24-48 h (Fig. S3)
Experimental: 2.4. CTG cell viability assays
HCT116 cells were seeded onto 96-well plates at a density of 2000 cells/well and allowed 24 h to settle. Cells were then treated with LSD1 inhibitors (0.0041-10 uM) alongside WT, DMSO and cell free control wells for 24-48 h. After this time, plates were equilibrated to RT for 30 mins, then CellTiter-Glo (Promega, G9242) reagent (5 uL/100 uL media) was added. Cells were lysed on an orbital shaker for 10 mins, then incubated at RT for 2 mins to allow luminescence to stabilise, following which luminescence was recorded on a HiDEX Sense microplate reader. To obtained plotted values, luminescence of each tested well was divided by that of the DMSO control, which were plotted against concentration using GraphPad Prism. […] was applied to obtain apparent IC50 values where possible.
Figure S3. Cell viability dose response curves
(1 picture or pasted object on this page, not shown here)

LSD1 = conditions: evaluated not part of the CoREST complex; read-out: LSD1 IC50; cited from earlier work
H3K4me2 in HCT116 cells = test: Histone methylation H3K4me2 by western blot; format: cell-based, human; conditions: HCT116, 0.1–10 μM, 24 hours, H3K4me2 antibody
Experimental: We next screened 25–33 and SP2509 over a concentration range of 0.1–10 μM in HCT116 cells (obtained from ATCC, CCL-247) and determined LSD1 abundance after 24 hours with an antibody for LSD1 (Fig. S4 ^†). […] Using the same conditions, we also determined the effects of SP2509, 25, 27, 28, 30 and 31 on histone H3 lysine 4 dimethyl (H3K4me2) a validated substrate for LSD1 using a specific antibody for H3K4me2 (Fig. S4 ^†).
Compounds 39–41, 49, 52 and 54 were screened for LSD1 degradation in HCT116 cells using a specific antibody for LSD1. This was performed side-by-side with TCP. Compounds were tested at concentration ranges of 0.2–20 μM and LSD1 abundance was quantified at 24 hours (Fig. S5 ^†). 49, 52 and 54 were also evaluated at 48 and 72 hours. […] We also determined the effects of these compounds on the histone methyl marker H3K4me2 (Fig. S5 and S6 ^†).
(§1) 2.5 Protocols for LSD1 degradation and histone methylation in HCT116 cells HCT116 human colon carcinoma cells were grown in Dulbecco’s Modified Eagle Medium (DMEM) supplemented with Fetal Bovine Serum (FBS, 10% final concentration) and 1x glutamine/penicillin/streptomycin. Cells were incubated at 37 °C and 5% CO2. Cells were treated with compounds (0.1-20 µM) with a final DMSO volume of 0.04%. DMSO (0.04%) treated and untreated (WT) cells were included as controls.
(§2) HCT116 cells were seeded into six well plates (400000 cells per well) and after requisite compound treatment time (24h, 48h, 72h) cells were harvested and either snap-frozen in liquid nitrogen or lysed in lysis buffer (50mM Tris-HCl, 150 mM NaCl, 0.5% NP-40, 0.5% Triton X-100 + protease inhibitor) on ice for 30 mins. This was centrifuged (15000 rpm, 4 °C, 15 mins) and the supernatant collected.
(§3) H2SO4 (0.4 M, equal volume) was added to the pellets for histone extraction and the tubes incubated overnight at 4 °C. Following this, the histone extract was centrifuged (15000 rpm, 4 °C, 15 mins) and the supernatant collected. Protein concentrations of whole cell extract were quantified via Bradford Assay using BIO-RAD Protein Assay Dye Reagent Concentrate.
(§4) Western blots were run on NuPAGE 4-12% Bis-Tris gels, with 30 µg of protein (whole cell extract) or an equivalent volume of histone extract loaded per lane, with all extracts dyed with 4x NuPAGE LDS Sample Buffer. PageRuler Plus Prestained Ladder was used as a reference. Gel electrophoresis was carried out at 140 V for 60-90 mins, following which the proteins were transferred onto nitrocellulose membrane at 30 V for 60 mins. Membranes were blocked in LI-COR Intercept Blocking Buffer overnight at RT on a roller, following which the membrane was probed with primary antibodies for 1 h at RT. The membrane was washed with PBS + 0.1% Tween (3 x 10 mins), then incubated with secondary antibodies for 50 mins at RT. The membrane was washed again (PBS Tween 2 x 10 mins, PBS 1 x 10 mins) following which the blot was visualised with the Odyssey Infrared Imaging System. Image processing and quantification was performed with ImageStudio Lite. […]
(§5) a-tubulin (mouse) – Sigma, t5168 (1:10000 dilution)

LSD1 in HCT116 cells = molecular target: T1, LSD1 in HCT116 cells (Homo sapiens, UniProt O60341); test: LSD1 degradation (LSD1 abundance) by western blot; format: cell-based; conditions: HCT116, 0.1–10 μM, 24 hours, LSD1 antibody
T1 construct: host or cells: HCT116
Experimental: Using the same conditions, we also determined the effects of SP2509, 25, 27, 28, 30 and 31 on histone H3 lysine 4 dimethyl (H3K4me2) a validated substrate for LSD1 using a specific antibody for H3K4me2 (Fig. S4 ^†).
Compounds were tested at concentration ranges of 0.2–20 μM and LSD1 abundance was quantified at 24 hours (Fig. S5 ^†). 49, 52 and 54 were also evaluated at 48 and 72 hours. […] We also determined the effects of these compounds on the histone methyl marker H3K4me2 (Fig. S5 and S6 ^†).
as §1, with “with compounds (0.1-20 µM) with a final DMSO volume of 0.04%. DMSO (0.04%) treated and untreated (WT) cells were included as controls.” left out
untreated (WT) cells were included as controls.
as §2
as §3, with “Concentrate. […]” for “Concentrate.”
as §4, with “or” for “Western blots were run on NuPAGE 4-12% Bis-Tris gels, with 30 µg of protein (whole cell extract) or”
as §5

C/C(=N\NC(=O)c1cccc(S(=O)(=O)N2CCOCC2)c1)c1cc(Cl)ccc1O [SP2509, reference compound]
cytotoxic effects in cells (HCT116 cells): significant cytotoxic effects
IC50 (LSD1): 13 nM
H3K4me2 abundance (H3K4me2 in HCT116 cells): no increase in H3K4me2
LSD1 abundance (degradation) (LSD1 in HCT116 cells): no degradation or change in LSD1 levels

Source: paper PMC12323867 (RSC Medicinal Chemistry, 2025)
